Patent US11958829B1, “3-(4,5-diphenyl-2-(pyridin-3-YL)-1H-imidazol-1-YL)-N,N-dimethylpopan-1-amine as an antimicrobial compound” (KING FAISAL UNIVERSITY, priority 2023, dated 2024)

Assays:
[1] = tested on: Candida albicans; experiment: Anti-microbial screening, agar dilution; format: cell-based; conditions: after 10, 20, 40 and 60 minutes at all dilutions, 1:100, 1:200, 1:400, and 1:800
Experimental: (§1) The antibacterial properties of the present compound were studied by the method of agar dilution. Test solutions of the compound were prepared in a concentration of 1% using dimethylformamide as a solvent then they are diluted in physiological solution to obtain the final experimental dilutions 1:100, 1:200, 1:400, and 1:800. The effect of these substances were compared with furacillin in a controllable study. The testing microbes used were gram positive bacteria St. Aereus, gram negative bacteria E. Coli, Ps. aeruginosa and Candida albicans fungi were taken. The experiments used for this survey were meat-pentonlu agar (EPA) for cultivation of bacteria and Saburo environment for fungi. Each experiment used 1 ml of test solution on each plate 500 min. Add 2 drops of emulsified with microbes feel. All experimental samples were taken from the agar after 10, 20, 40, and 60 minutes in the environment on the basis of Patrk planted. Bacteria were cultivated at a temperature of 37° C. for 1 day and the mushroom was kept in a thermostat for […] at a temperature of 28° C. Then results were checked.

[2] = tested on: E. Coli; experiment: Anti-microbial screening, agar dilution; format: cell-based; conditions: after 10, 20, 40 and 60 minutes at all dilutions, 1:100, 1:200, 1:400, and 1:800
Experimental: as §1

[3] = tested on: St. Aereus; experiment: Anti-microbial screening, agar dilution; format: cell-based; conditions: after 10, 20, 40 and 60 minutes at all dilutions, 1:100, 1:200, 1:400, and 1:800
Experimental: as §1

[4] = tested on: Ps. Aeroqonaza; experiment: Anti-microbial screening, agar dilution; format: cell-based, Ps. aeruginosa; conditions: after 10, 20, 40 and 60 minutes at all dilutions, 1:100, 1:200, 1:400, and 1:800
Experimental: as §1

melting point: 145 to 147 °C
SMILES: CN(C)CCCn1c(-c2cccnc2)nc(-c2ccccc2)c1-c1ccccc1 [3-(4,5-Diphenyl-2-(pyridin-3-yl)-1H-imidazol-1-yl)-N,N-dimethylpropan-1-amine]
inhibition activity, Candida albicans [1]: highest inhibition activity | inhibition activity, E. Coli [2]: highest inhibition activity | inhibition activity, St. Aereus [3]: highest inhibition activity | inhibition activity, Ps. aeruginosa [4]: highest inhibition activity
